The values that follow come from patent US20210186947A1, “TOMM6-INTERACTING EXTRACTS AND COMPOUNDS FOR USE IN THE TREATMENT AND PROPHYLAXIS OF NERVOUS SYSTEM DISEASES, ATHEROSCLEROSIS, HEPATITIS B INFECTION AND HUMAN PAPILLOMA VIRUS (HPV) INFECTION” (ETH ZURICH, priority 2018, published 2021).

One series deals with Salmonella strain TA1537. The note with it: cited from earlier work.
Series [1] concerns angiotensin II AT2 receptor (AT2R, AGTR2). The series is described as follows: AT2R protein aggregation assay in HEK cells, immunoblot. The note with it: 10 microM for 72 h. The class given is cell-based, human. The procedure: Proteins were also extracted from yeast cells and HEK cells expressing the indicated protein (i.e. HBsAg or AGTR2) as described above. Neuronal cell loss and hyperphosphorylated Tau in hippocampi of 15 months-old Tg2576 mice subjected to the CUMS protocol for 3 months was determined with crude homogenates of dissected hippocampi by direct binding assay with neuron-specific [^125I]-labeled anti-NeuN antibody (MAB377, clone A60, EMD Millipore, Merck KGaA, Darmstadt, Germany) and [^125I]-labeled AT8 antibody similarly as described (AbdAlla et al., J. Biol. Chem. 284, 6554-6565 (2009)).
In the second non-Abeta-based protein aggregation assay, different plant extracts were tested in a mammalian cell system, which analyzed the protein aggregation of the angiotensin II AT2 receptor (AT2R, AGTR2) protein in human embryonic kidney (HEK) cells. The system has physiological relevance because this cellular system is capable to reproduce AT2R protein aggregation, which also occurs in brains of AD patients and AD animal models (AbdAlla et al., J. Biol. Chem. 284, 6554-6565 (2009); AbdAlla et al., J. Biol. Chem. 284, 6566-6574 (2009)). The AT2 receptor in human embryonic kidney (HEK) cells forms stable dimers/oligomers under pro-oxidant conditions, which are resistant to urea-containing reducing SDS-PAGE (FIG. 2A, and AbdAlla et al., J. Biol. Chem. 284, 6566-6574 (2009)). […]
(In general: Immunoblotting shows a protein as a band on a membrane.)

A short description of series [2]: Tolerability / toxicity in dogs during four weeks of oral treatment. The class given is in vivo. Particulars: once daily oral dose up to 6 mg/kg/d.
Series [3] can be described thus: Sub-chronic oral toxicity in rats. The class given is in vivo, Sprague Dawley rats. The procedure: Sub-chronic toxicity studies in dogs (German Shepherd dogs) and rats (Sprague Dawley rats) were performed by the Center of Applied Analytical and Veterinary Studies, Cairo, Egypt.
The oral toxicity of alizarin (Compound-1) in rats was determined in a sub-chronic toxicity study. Rats were treated for 3 months with a once daily oral dose of alizarin of 25 mg/kg/day, 50 mg/kg/day and 100 mg/kg/day. […] The good tolerability of alizarin in rats and dogs is supported by previous observations in humans, which document that long-term treatment for several years with alizarin and alizarin-containing plant extracts is not toxic and was previously used to prevent recurrence of calcium-containing urinary stones (Lorenz et al., Methods Find. Exp. Clin. Pharmacol. 7, 637-643, 1985). Taken together, alizarin has good oral bioavailability and a wide therapeutic window.
Pharmacokinetic data of Compound-7 were determined as another representative TOMM6/Tomm6 inducer with a different chemical structure than alizarin (Compound-1). […] The oral bioavailability of Compound-7 in dogs was much higher than in rats because oral doses of Compound-7 required to achieve equivalent peak serum concentrations were approximately 10-fold higher in rats compared to dogs (FIG. 20B). Again, this observation is in agreement with the equivalent surface area dosage rule, according to which rats and mice usually require a 10-12-fold higher dose than dogs and humans. […] This second peak could reflect enterohepatic recirculation of Compound-7.

As to `O=C1c2ccccc2C(=O)c2c1ccc(O)c2O` [Compound-1, 1,2-dihydroxyanthraquinone], the “mutagenicity in the Ames test” value with Salmonella strain TA1537 was “could be mutagenic”. In addition, the “aggregation of the AT2 receptor” value in series [1] was “inhibited the aggregation of the AT2 receptor”. Besides, the “adverse effects (behaviour, food intake, weight gain, cardiovascular parameters, blood cells, clinical chemistry)” value in series [2] was “did not induce any detectable adverse effects”. Also, the “histopathology of heart, liver, kidney” value in series [3] (rats, 3 months, once daily oral 100 mg/kg) is “did not show any detectable alterations”. In series [3] (rats, 3 months, once daily oral 25, 50 and 100 mg/kg/day), the “adverse effects on body, liver, heart and kidney weight, serum calcium, creatinine, BUN, ALT, AST” value was “did not find any significant adverse effects”. Further, the “difference between therapeutic and toxic doses (therapeutic index)” value in series [3] (therapeutic dose 10 mg/kg once daily in rodent models) is “more than 10 fold”.
